Legend:
Format in all cases: cell-based
[1] = molecular target: T1, human A2B receptor (Homo sapiens, UniProt P29275); experiment: cAMP (HTRF) functional assay, recombinant HEK293 cells expressing human A2B receptor, agonist NECA
T1 construct: expressed in transfected cells; host or cells: HEK293
T1 sequence (P29275 1-332): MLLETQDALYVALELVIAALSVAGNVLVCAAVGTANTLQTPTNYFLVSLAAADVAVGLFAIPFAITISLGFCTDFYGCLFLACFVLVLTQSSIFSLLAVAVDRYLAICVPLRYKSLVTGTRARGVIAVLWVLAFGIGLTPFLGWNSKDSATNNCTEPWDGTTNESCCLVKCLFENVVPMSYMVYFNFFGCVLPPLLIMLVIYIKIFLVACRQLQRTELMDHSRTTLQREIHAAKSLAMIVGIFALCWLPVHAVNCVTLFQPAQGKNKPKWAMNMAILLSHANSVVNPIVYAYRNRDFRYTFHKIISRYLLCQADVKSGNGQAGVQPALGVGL
Description: (§1) The functional activities of human A2A, A2B, A1 and A3 receptors were determined by quantification of cAMP, being the second messenger for adenosine receptors.
(§2) Cells were seeded into 384-well plates, forskolin, test compounds and agonists (CPA for A1- and IB-MECA for A3-receptor) were added. After 30 min incubation, HTRF reagents (cAMP dynamic 2, Cis Bio) were added and the cellular cAMP levels were determined using the ENVISION (Perkin Elmer) plate reader. Obtained raw data were normalized against the inhibitor control and the neural control (DMSO) and the normalized data were fitted using GeneData software.

[2] = molecular target: T2, human A1 receptor (Homo sapiens, UniProt P30542); experiment: cAMP (HTRF) functional assay, recombinant CHO cells expressing human A1 receptor, forskolin + agonist CPA
T2 construct: expressed in transfected cells; host or cells: CHO
T2 sequence (P30542 1-326): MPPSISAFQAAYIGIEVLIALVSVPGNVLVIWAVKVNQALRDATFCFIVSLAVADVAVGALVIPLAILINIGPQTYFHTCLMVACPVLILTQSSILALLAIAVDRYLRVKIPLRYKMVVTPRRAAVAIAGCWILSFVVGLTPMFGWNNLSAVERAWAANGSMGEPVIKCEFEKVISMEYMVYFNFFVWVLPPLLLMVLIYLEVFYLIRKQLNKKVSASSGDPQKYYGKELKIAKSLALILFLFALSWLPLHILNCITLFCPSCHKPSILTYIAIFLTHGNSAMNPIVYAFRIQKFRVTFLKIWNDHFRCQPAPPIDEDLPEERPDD
Description: as §1
For human A1 and A3 receptors, recombinant CHO cells, expressing either A1 or A3-receptor, were used. As both receptors couple to Gi proteins, the assay protocol was adapted:
as §2

[3] = molecular target: T3, human A2A receptor (Homo sapiens, UniProt P29274); experiment: cAMP (HTRF) functional assay, recombinant HEK293 cells expressing human A2A receptor, agonist NECA
T3 construct: expressed in transfected cells; host or cells: HEK293
Description: as §1, §2

T3 sequence (P29274 whole entry): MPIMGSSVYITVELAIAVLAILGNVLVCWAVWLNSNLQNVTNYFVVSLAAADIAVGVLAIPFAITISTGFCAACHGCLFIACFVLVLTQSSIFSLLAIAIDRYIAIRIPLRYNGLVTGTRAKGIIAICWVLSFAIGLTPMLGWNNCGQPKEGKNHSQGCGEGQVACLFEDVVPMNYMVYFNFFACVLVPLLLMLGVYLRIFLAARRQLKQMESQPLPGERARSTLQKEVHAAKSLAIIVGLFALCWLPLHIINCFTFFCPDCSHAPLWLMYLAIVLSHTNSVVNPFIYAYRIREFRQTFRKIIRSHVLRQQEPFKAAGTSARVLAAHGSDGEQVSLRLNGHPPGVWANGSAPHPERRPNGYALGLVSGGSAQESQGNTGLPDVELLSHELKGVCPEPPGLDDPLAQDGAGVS

SMILES	IC50 [1] [nM]	IC50 [2] [nM]	IC50 [3] [nM]
COc1ncc(N2CCOCC2)c2sc(NC(=O)c3ccc(N4C(=O)CCC4=O)cc3)nc12 [compound 214, 4-(2,5-Dioxo-pyrrolidin-1-yl)-N-(4-methoxy-7-morpholin-4-yl-thiazolo[4,5-c]pyridin-2-yl)-benzamide]	< 100	> 1000	< 10
COc1ncc(N2CCOCC2)c2sc(NC(=O)c3ccc(Cn4ccnc4)cc3)nc12 [compound 33, 4-Imidazol-1-ylmethyl-N-(4-methoxy-7-morpholin-4-yl-thiazolo[4,5-c]pyridin-2-yl)-benzamide]	< 100	> 1000	< 10
COc1ncc(-c2cnn(C)c2)c2sc(NC(=O)N3CCC4(CCCOC4)C3)nc12 (stereo not shown) [compound 80, 7-Oxa-2-aza-spiro[4.5]decane-2-carboxylic acid [4-methoxy-7-(1-methyl-1H-pyrazol-4-yl)-thiazolo[4,5-c]pyridin-2-yl]-amide]	< 100	> 1000	< 10
COc1ncc(N2CCOCC2)c2sc(NC(=O)c3ccc(CN4CCCC4=O)cc3)nc12 [compound 170, N-(4-Methoxy-7-morpholin-4-yl-thiazolo[4,5-c]pyridin-2-yl)-4-(2-oxo-pyrrolidin-1-ylmethyl)-benzamide]	< 100		< 10
COc1ncc(C2CCOCC2)c2sc(NC(=O)c3cnc(C)s3)nc12 [compound 181, 2-Methyl-thiazole-5-carboxylic acid [4-methoxy-7-(tetrahydro-pyran-4-yl)-thiazolo[4,5-c]pyridin-2-yl]-amide]	< 100	< 1000	< 10
COc1ncc(-c2cnn(C)c2)c2sc(NC(=O)N3CC[C@]4(CCCOC4)C3)nc12 [compound 177, (R)-7-Oxa-2-aza-spiro[4.5]decane-2-carboxylic acid [4-methoxy-7-(1-methyl-1H-pyrazol-4-yl)-thiazolo[4,5-c]pyridin-2-yl]-amide]	< 100	> 1000	< 10
COc1ncc(-c2ccccc2)c2sc(NC(=O)c3ccc(CN4CCCC4=O)cc3)nc12 [compound 62, N-(4-Methoxy-7-phenyl-thiazolo[4,5-c]pyridin-2-yl)-4-(2-oxo-pyrrolidin-1-ylmethyl)-benzamide]	< 100	< 1000	< 10
COc1ncc(C2CCOCC2)c2sc(NC(=O)c3ccc(CN4CCCC4=O)cc3)nc12 [compound 180, N-[4-Methoxy-7-(tetrahydro-pyran-4-yl)-thiazolo[4,5-c]pyridin-2-yl]-4-(2-oxo-pyrrolidin-1-ylmethyl)-benzamide]	< 100	< 1000	< 10
COc1ncc(-c2ccc(F)cc2)c2sc(NC(=O)N3CCC4(CCOCC4)C3)nc12 [compound 193, 8-Oxa-2-aza-spiro[4.5]decane-2-carboxylic acid [7-(4-fluoro-phenyl)-4-methoxy-thiazolo[4,5-c]pyridin-2-yl]-amide]	< 100	> 1000	< 10
COc1ncc(-c2ccncc2)c2sc(NC(=O)c3ccc(C(=O)N(C)C)cc3)nc12 [compound 219, N-(4-Methoxy-7-pyridin-4-yl-thiazolo[4,5-c]pyridin-2-yl)-N′,N′-dimethyl-terephthalamide]	< 100	> 1000	< 10
COc1ncc(-c2ccncc2)c2sc(NC(=O)N3CCC4(CCOCC4)C3)nc12 [compound 212, 8-Oxa-2-aza-spiro[4.5]decane-2-carboxylic acid (4-methoxy-7-pyridin-4-yl-thiazolo[4,5-c]pyridin-2-yl)-amide]	< 100	> 1000	< 10
COc1ncc(C2CCOCC2)c2sc(NC(=O)c3cnc(C)o3)nc12 [compound 147, 2-Methyl-oxazole-5-carboxylic acid [4-methoxy-7-(tetrahydro-pyran-4-yl)-thiazolo[4,5-c]pyridin-2-yl]-amide]	< 100	> 1000	< 10
COc1ncc(-c2ccccc2)c2sc(NC(=O)N3CCC4(CCCC4N)CC3)nc12 (stereo not shown) [compound 201, 1-amino-N-{4-methoxy-7-phenyl-[1,3]thiazolo[4,5-c]pyridin-2-yl}-8-azaspiro[4.5]decane-8-carboxamide]	< 100		< 10
COc1ncc(C2CCOCC2)c2sc(NC(=O)N3CCC4(CCOCC4)C3)nc12 [compound 232, 8-Oxa-2-aza-spiro[4.5]decane-2-carboxylic acid [4-methoxy-7-(tetrahydro-pyran-4-yl)-thiazolo[4,5-c]pyridin-2-yl]-amide]	< 100	> 1000	< 10
COc1ncc(N2CCOCC2)c2sc(NC(=O)N3CC[C@@]4(CCCOC4)C3)nc12 [compound 168, (S)-7-Oxa-2-aza-spiro[4.5]decane-2-carboxylic acid (4-methoxy-7-morpholin-4-yl-thiazolo[4,5-c]pyridin-2-yl)-amide]	< 100		< 10
COc1ncc(N2CCOCC2)c2sc(NC(=O)N3CCC4(CCCOC4)C3)nc12 (stereo not shown) [compound 34, 7-Oxa-2-aza-spiro[4.5]decane-2-carboxylic acid (4-methoxy-7-morpholin-4-yl-thiazolo[4,5-c]pyridin-2-yl)-amide]	< 100		< 10
COc1ncc(-c2cnn(C)c2)c2sc(NC(=O)N3CCC4(CCOCC4)C3)nc12 [compound 81, 8-Oxa-2-aza-spiro[4.5]decane-2-carboxylic acid [4-methoxy-7-(1-methyl-1H-pyrazol-4-yl)-thiazolo[4,5-c]pyridin-2-yl]-amide]	< 100	> 1000	< 10
COc1ncc(C2=CCOCC2)c2sc(NC(=O)N3CCC4(CCOCC4)C3)nc12 [compound 237, 8-Oxa-2-aza-spiro[4.5]decane-2-carboxylic acid [7-(3,6-dihydro-2H-pyran-4-yl)-4-methoxy-thiazolo[4,5-c]pyridin-2-yl]-amide]	< 10	< 1000	< 10
COc1ncc(C2CCOCC2)c2sc(NC(=O)c3ccc(CN(C)C)cc3)nc12 [compound 27, 4-Dimethylaminomethyl-N-[4-methoxy-7-(tetrahydro-pyran-4-yl)-thiazolo[4,5-c]pyridin-2-yl]-benzamide]	< 100	> 1000	< 10
COc1ncc(-c2cnn(C)c2)c2sc(NC(=O)N3CC[C@@]4(CCCOC4)C3)nc12 [compound 176, (S)-7-Oxa-2-aza-spiro[4.5]decane-2-carboxylic acid [4-methoxy-7-(1-methyl-1H-pyrazol-4-yl)-thiazolo[4,5-c]pyridin-2-yl]-amide]	< 100	> 1000	< 10
COc1ncc(-c2cnn(C)c2)c2sc(NC(=O)c3ccc(CN(C)C)cc3)nc12 [compound 22, 4-Dimethylaminomethyl-N-[4-methoxy-7-(1-methyl-1H-pyrazol-4-yl)-thiazolo[4,5-c]pyridin-2-yl]-benzamide]	< 100	> 1000	< 10
COc1ncc(-c2cnn(C)c2)c2sc(NC(=O)N3CC[C@@]4(CCOC4)C3)nc12 [compound 172, (R)-2-Oxa-7-aza-spiro[4.4]nonane-7-carboxylic acid [4-methoxy-7-(1-methyl-1H-pyrazol-4-yl)-thiazolo[4,5-c]pyridin-2-yl]-amide]	< 100	> 1000	< 10
COc1nc(F)c(-c2ccccc2)c2sc(NC(=O)N3CCC4(CCOCC4)C3)nc12 [compound 229, 8-Oxa-2-aza-spiro[4.5]decane-2-carboxylic acid (6-fluoro-4-methoxy-7-phenyl-thiazolo[4,5-c]pyridin-2-yl)-amide]	< 10		< 10

Reference: patent publication US11186592B2, “Thiazolopyridine derivatives as adenosine receptor antagonists” (MERCK PATENT GMBH, priority 2017, dated 2021)
